Assay results taken from US11730712B2, “Functionalized long-chain hydrocarbon mono- and di-carboxylic acids and derivatives thereof, and their use for the prevention or treatment of disease” (ESPERVITA THERAPEUTICS, INC., priority 2021, dated 2023).

Tested on: liver fibrosis gene panel (770 genes)
Assay: Nanostring nCounter Fibrosis panel gene expression in liver of DEN-injected mice
Format: in vivo, mouse
Settings: vs vehicle
Description: Nanostring Analysis. RNA was extracted from paired liver and tumor tissue from vehicle, Compound I-1 (100 mg/kg) and Compound I-32 (100 mg/kg) treated mice using an RNeasy kit (Qiagen, Calif., USA) as per manufacturer's protocol. All RNA samples passed the BioAnalyzer quality control test. The expression of target genes in liver and tumor were analyzed using the nCounter Fibrosis and Cancer Panel (NanoString Technologies, Inc., WA, USA), respectively according to manufacturer's protocol at the McMaster Genomics Facility. Technical and biological normalization against global geometric mean was performed in nSolver 4.0 software (NanoString Technologies). Technical normalization was performed in the nSolver software (version 4.0.70) by normalizing sample target raw counts to the geometric mean of positive control spike-ins. Biological normalization was performed by normalizing sample target raw counts to the geometric mean of selected housekeeping genes (Ppia, Nubp1, Nol7, Armh3, Rplp0, Cnot10, Pgk1, and Acad9). Pathway scores were calculated as the first principal component of the normalized expression values for all genes in each pathway and samples were compiled according to experimental groups to determine average pathway scores. Statistical significance was calculated between experimental groups using multiple t-tests and p-values were corrected for multiple comparisons using Benjamin-Hochberg false discovery rate.
Molecular analysis. To identify the pathways modulated in the liver and tumor tissue, nanostring analysis of fibrosis and cancer, pathways, respectively were completed in an n=8 mice treated with vehicle or Compound I-32 or Compound I-1 at 100 mg/kg.

In the case of `CC(C)(CCCCc1cccc(CCCCC(C)(C)C(=O)O)c1)C(=O)O` [Compound I-32, 6-[3-(5-carboxy-5-methylhexyl)-phenyl]-2,2-dimethylhexanoic acid], the “Cpt1a Log2FC” value (NM_013495, 100 mg/kg) is reported as −0.363, the “Creb3 Log2FC” value (NM_013497, 100 mg/kg) is reported as −0.409 and the “P3h3 Log2FC” value (NM_013534, 100 mg/kg) is reported as −0.96. The “Rora Log2FC” value (NM_013646, 100 mg/kg) was 0.258, the “Slc25a10 Log2FC” value (NM_013770, 100 mg/kg) was 0.324 and the “H2-M3 Log2FC” value (NM_013819, 100 mg/kg) was −0.633. The “Xbp1 Log2FC” value (NM_013842, 100 mg/kg) was −0.29, the “Col5a1 Log2FC” value (NM_015734, 100 mg/kg) was −0.601 and the “Ero1l Log2FC” value (NM_015774, 100 mg/kg) was 0.269. The “Cfhr1 Log2FC” value (NM_015780, 100 mg/kg) was −0.283, the “Isg15 Log2FC” value (NM_015783, 100 mg/kg) was −0.673 and the “C6 Log2FC” value (NM_016704, 100 mg/kg) was −1.04. The “Irf3 Log2FC” value (NM_016849, 100 mg/kg) was −0.206, the “Actr1a Log2FC” value (NM_016860, 100 mg/kg) was −0.192 and the “Ywhag Log2FC” value (NM_018871, 100 mg/kg) was 0.265. For the same molecule, the “Fbp1 Log2FC” value (NM_019395, 100 mg/kg) was −0.981, the “Ppp2ca Log2FC” value (NM_019411, 100 mg/kg) was −0.123 and the “Atf7ip Log2FC” value (NM_019426, 100 mg/kg) was −0.289. For the same molecule, the “Ndufa1 Log2FC” value (NM_019443, 100 mg/kg) was 0.156, the “Htra2 Log2FC” value (NM_019752, 100 mg/kg) was −0.286 and the “Cpb2 Log2FC” value (NM_019775, 100 mg/kg) was −0.467. The “Uba52 Log2FC” value (NM_019883, 100 mg/kg) was 0.433, the “Ube2d2a Log2FC” value (NM_019912, 100 mg/kg) was −0.231 and the “Aldh9a1 Log2FC” value (NM_019993, 100 mg/kg) was 0.467. The “Angptl4 Log2FC” value (NM_020581, 100 mg/kg) was 0.413, the “Isg20 Log2FC” value (NM_020583, 100 mg/kg) was −0.491 and the “Abcb11 Log2FC” value (NM_021022, 100 mg/kg) was −0.503. The “Rps6kb2 Log2FC” value (NM_021485, 100 mg/kg) was −0.398, the “Cxcl12 Log2FC” value (NM_021704, 100 mg/kg) was −0.535 and the “Apoc3 Log2FC” value (NM_023114, 100 mg/kg) was −0.391. The “Cxcl16 Log2FC” value (NM_023158, 100 mg/kg) was −0.445, the “Ern1 Log2FC” value (NM_023913, 100 mg/kg) was −0.451 and the “Sec61b Log2FC” value (NM_024171, 100 mg/kg) was −0.37. For the same molecule, the “Hsbp1 Log2FC” value (NM_024219, 100 mg/kg) was −0.155, the “Cyp27a1 Log2FC” value (NM_024264, 100 mg/kg) was −0.71 and the “Fabp4 Log2FC” value (NM_024406, 100 mg/kg) was 0.887. For the same molecule, the “Ndufb5 Log2FC” value (NM_025316, 100 mg/kg) was 0.36, the “Ssr2 Log2FC” value (NM_025448, 100 mg/kg) was −0.208 and the “Psenen Log2FC” value (NM_025498, 100 mg/kg) was −0.154. The “Ndufc1 Log2FC” value (NM_025523, 100 mg/kg) was 0.363, the “Cox6b1 Log2FC” value (NM_025628, 100 mg/kg) was 0.405 and the “Uqcrh Log2FC” value (NM_025641, 100 mg/kg) was 0.28. For the same molecule, the “Uqcrfs1 Log2FC” value (NM_025710, 100 mg/kg) was 0.188, the “Map1lc3a Log2FC” value (NM_025735, 100 mg/kg) was 0.744 and the “Ndufb8 Log2FC” value (NM_026061, 100 mg/kg) was 0.279. For the same molecule, the “Erp29 Log2FC” value (NM_026129, 100 mg/kg) was −0.277, the “Uqcrb Log2FC” value (NM_026219, 100 mg/kg) was 0.377 and the “Sugt1 Log2FC” value (NM_026474, 100 mg/kg) was 0.15. The “Atg101 Log2FC” value (NM_026566, 100 mg/kg) was −0.483, the “Ndufs3 Log2FC” value (NM_026688, 100 mg/kg) was 0.148 and the “Ifi35 Log2FC” value (NM_027320, 100 mg/kg) was −0.447. The “Pgm2 Log2FC” value (NM_028132, 100 mg/kg) was 0.339, the “Phykpl Log2FC” value (NM_028398, 100 mg/kg) was −0.288 and the “Pik3cb Log2FC” value (NM_029094, 100 mg/kg) was −0.412. For the same molecule, the “Hcar2 Log2FC” value (NM_030701, 100 mg/kg) was 1.41, the “Cpn1 Log2FC” value (NM_030703, 100 mg/kg) was 0.351 and the “Slc2a2 Log2FC” value (NM_031197, 100 mg/kg) was −0.47. The “Lamtor2 Log2FC” value (NM_031248, 100 mg/kg) was 0.189, the “Dock2 Log2FC” value (NM_033374, 100 mg/kg) was −0.474 and the “Ube2n Log2FC” value (NM_080560, 100 mg/kg) was −0.194. For the same molecule, the “Elovl6 Log2FC” value (NM_130450, 100 mg/kg) was 1.22, the “Acaca Log2FC” value (NM_133360, 100 mg/kg) was 0.893 and the “Fgg Log2FC” value (NM_133862, 100 mg/kg) was −0.387. The “Acacb Log2FC” value (NM_133904, 100 mg/kg) was 0.681, the “Il1rap Log2FC” value (NM_134103, 100 mg/kg) was −0.868 and the “Ptpa Log2FC” value (NM_138748, 100 mg/kg) was 0.222. The “Mylk Log2FC” value (NM_139300, 100 mg/kg) was −0.532, the “Fegr4 Log2FC” value (NM_144559, 100 mg/kg) was −0.638 and the “Aldob Log2FC” value (NM_144903, 100 mg/kg) was −0.6. For the same molecule, the “C1s1 Log2FC” value (NM_144938, 100 mg/kg) was −0.755, the “Txndc5 Log2FC” value (NM_145367, 100 mg/kg) was −0.321 and the “Ldlrap1 Log2FC” value (NM_145554, 100 mg/kg) was −0.189. The “Jak1 Log2FC” value (NM_146145, 100 mg/kg) was −0.166, the “C8a Log2FC” value (NM_146148, 100 mg/kg) was −1.37 and the “Pkhdi Log2FC” value (NM_153179, 100 mg/kg) was −1.12. The “Nckap1l Log2FC” value (NM_153505, 100 mg/kg) was −0.653, the “Mbtps2 Log2FC” value (NM_172307, 100 mg/kg) was 0.306 and the “Cyp4a12a Log2FC” value (NM_177406, 100 mg/kg) was 1.42. For the same molecule, the “Acaa2 Log2FC” value (NM_177470, 100 mg/kg) was 0.314, the “Jmjd4 Log2FC” value (NM_178659, 100 mg/kg) was −0.516 and the “Nceh1 Log2FC” value (NM_178772, 100 mg/kg) was 0.444. For the same molecule, the “Hadha Log2FC” value (NM_178878, 100 mg/kg) was 0.903, the “Mfap3 Log2FC” value (NM_180599, 100 mg/kg) was −0.362 and the “Bst2 Log2FC” value (NM_198095, 100 mg/kg) was 0.494. The “Acsl4 Log2FC” value (NM_207625, 100 mg/kg) was 0.737, the “Cflar Log2FC” value (NM_207653, 100 mg/kg) was −0.25 and the “Egfr Log2FC” value (NM_207655, 100 mg/kg) was −0.93. The “Stat3 Log2FC” value (NM_213659, 100 mg/kg) was −0.686, the “H2-K1 Log2FC” value (NM_001001892, 100 mg/kg) was −0.168 and the “Kdm2a Log2FC” value (NM_001001984, 100 mg/kg) was −0.255. The “Cfhr2 Log2FC” value (NM_001025575, 100 mg/kg) was −0.596, the “Ndufs5 Log2FC” value (NM_001030274, 100 mg/kg) was 0.381 and the “Itga1 Log2FC” value (NM_001033228, 100 mg/kg) was −0.312. For the same molecule, the “Dock1 Log2FC” value (NM_001033420, 100 mg/kg) was −0.347, the “Xaf1 Log2FC” value (NM_001037713, 100 mg/kg) was −0.701 and the “Banf1 Log2FC” value (NM_001038231, 100 mg/kg) was 0.339. The “Smurf Log2FC” value (NM_001038627, 100 mg/kg) was −0.969, the “Seh1l Log2FC” value (NM_001039088, 100 mg/kg) was 0.216 and the “Nrp2 Log2FC” value (NM_001077403, 100 mg/kg) was 0.619. The “Ptafr Log2FC” value (NM_001081211, 100 mg/kg) was −0.408, the “Brpf3 Log2FC” value (NM_001081315, 100 mg/kg) was 0.3 and the “Aqp8 Log2FC” value (NM_001109045, 100 mg/kg) was −0.632. For the same molecule, the “Igf1 Log2FC” value (NM_001111274, 100 mg/kg) was −0.588, the “Itga9 Log2FC” value (NM_001113514, 100 mg/kg) was −0.212 and the “Il1r1 Log2FC” value (NM_001123382, 100 mg/kg) was −1.16. The “Aldh7a1 Log2FC” value (NM_001127338, 100 mg/kg) was −0.344, the “Rnf152 Log2FC” value (NM_001160368, 100 mg/kg) was −0.687 and the “Cyfip1 Log2FC” value (NM_001164661, 100 mg/kg) was −0.229. For the same molecule, the “Slc25a13 Log2FC” value (NM_001177572, 100 mg/kg) was −0.179, the “Syk Log2FC” value (NM_001198977, 100 mg/kg) was −0.772 and the “Cd84 Log2FC” value (NM_001252472, 100 mg/kg) was −0.6. For the same molecule, the “Apoc2 Log2FC” value (NM_001277944, 100 mg/kg) was −0.94, the “Ncf1 Log2FC” value (NM_001286037, 100 mg/kg) was −0.635 and the “Cd68 Log2FC” value (NM_001291058, 100 mg/kg) was −0.732. For the same molecule, the “Itga5 Log2FC” value (NM_001314041, 100 mg/kg) was −0.402 and the “Col6a3 Log2FC” value (XM_897036, 100 mg/kg) was −0.679.
